Calls of active or inactive are those of the source. The calls are words filed in the database; no cut-off is given here.
How the values were obtained:
[1] = system: Human immunodeficiency virus 1; assay: Antiviral activity against HIV1 NL4-3 infected in human 293T cells assessed as inhibition of viral replication at 10 uM after 48 hrs by luciferase reporter gene assay; format: functional, organism-based
[2] = system: Peritoneal macrophage cell; assay: Inhibition of LPS-induced nitric oxide production in C57BL/6J mouse peritoneal macrophages at 10 uM after 24 hrs by Griess reaction; format: functional
Liver microsomes = assay: Antioxidant activity in rat Liver microsome assessed as inhibition of Fe2+-cystine-induced lipid peroxidation at 10 uM; format: functional
WB-F344 = assay: Hepatoprotective activity against DL-galactosamine-induced cell damage in rat WB-F344 cells at 10 uM after 24 hrs by MTT assay; format: functional, cell-based
A549 = assay: Cytotoxicity against human A549 cells at 10 uM after 96 hrs by MTT assay; format: functional, cell-based
BGC-823 = assay: Cytotoxicity against human BGC823 cells at 10 uM after 96 hrs by MTT assay; format: functional, cell-based
MCF7 = assay: Cytotoxicity against human MCF7 cells at 10 uM after 96 hrs by MTT assay; format: functional, cell-based
Bel-7402 = assay: Cytotoxicity against human Bel7402 cells at 10 uM after 96 hrs by MTT assay; format: functional, cell-based
KETR3 = assay: Cytotoxicity against human Ketr3 cells at 10 uM after 96 hrs by MTT assay; format: functional, cell-based
HCT-8 = assay: Cytotoxicity against human HCT8 cells at 10 uM after 96 hrs by MTT assay; format: functional, cell-based
PC-12 = assay: Neuroprotective activity against serum deprivation-induced toxicity in rat PC12 cells assessed as increase in cell viability at 10 uM after 48 hrs by MTT assay; format: functional

Structure (SMILES) | inhibition [1] | inhibition at 10 µM [2] [%] | inhibition (Liver microsomes) | Activity (WB-F344) | Activity (A549) | Activity (BGC-823) | Activity (MCF7) | Activity (Bel-7402) | Activity (KETR3) | Activity (HCT-8) | Activity (PC-12) [%]
COc1cc([C@@H]2OC[C@@H]3[C@H]2CO[C@H]3c2cc(OC)c(OC)c(OC)c2)cc(OC)c1O | inactive | < 30 | inactive | inactive | inactive | inactive | inactive | inactive | inactive | inactive | –
COc1cc([C@@H](O)[C@H](CO)Oc2c(OC)cc(-c3cc(=O)c4c(O)cc(O)cc4o3)cc2OC)ccc1O | inactive | < 30 | inactive | inactive | inactive | inactive | inactive | inactive | inactive | inactive | –
COc1cc(C(=O)[C@@H]2CO[C@H](c3cc(OC)c(O)c(OC)c3)[C@H]2CO)cc(OC)c1O | inactive | < 30 | inactive | inactive | inactive | inactive | inactive | inactive | inactive | inactive | –
COc1cc([C@@H]2O[C@@H](c3cc(OC)c(OC)c(OC)c3)[C@H](CO)[C@H]2CO)cc(OC)c1O | inactive | < 30 | inactive | inactive | inactive | inactive | inactive | inactive | inactive | inactive | –
COc1cc([C@H](O)[C@H](CO)Oc2c(OC)cc(O)cc2OC)ccc1O | inactive | < 30 | inactive | inactive | inactive | inactive | inactive | inactive | inactive | inactive | –
COc1cc(-c2cc(=O)c3c(O)cc(O)cc3o2)cc(OC)c1O[C@@H](CO)[C@H](O)c1ccc(O)cc1 | inactive | < 30 | inactive | inactive | inactive | inactive | inactive | inactive | inactive | inactive | 80.7
COc1cc(-c2cc(=O)c3c(O)cc(O)cc3o2)cc(OC)c1O[C@@H](CO)[C@@H](O)c1ccc(O)cc1 | inactive | 84.2 | inactive | inactive | inactive | inactive | inactive | inactive | inactive | inactive | 107.2
COc1cc([C@H](O)[C@H](CO)Oc2c(OC)cc(-c3cc(=O)c4c(O)cc(O)cc4o3)cc2OC)ccc1O [SALCOLIN B] | inactive | 71.7 | inactive | inactive | inactive | inactive | inactive | inactive | inactive | inactive | 97.6
COc1cc2c(c(OC)c1O)[C@H]1c3c(cc(OC)c(O)c3OC)OC[C@@H](C2)[C@H]1CO | inactive | < 30 | inactive | inactive | inactive | inactive | inactive | inactive | inactive | inactive | –
COc1cc([C@H](O)[C@H](CO)Oc2c(OC)cc(C(=O)O)cc2OC)ccc1O | inactive | < 30 | inactive | inactive | inactive | inactive | inactive | inactive | inactive | inactive | –
COc1cc([C@@H]2Oc3c(OC)cc(/C=C/CO)cc3[C@H]2CO)cc(OC)c1OC | inactive | < 30 | inactive | inactive | inactive | inactive | inactive | inactive | inactive | inactive | –
COc1cc([C@H](O)[C@H](CO)Oc2c(OC)cc([C@@H]3OC[C@@H]4[C@H]3CO[C@H]4c3cc(OC)c(O[C@@H](CO)[C@@H](O)c4ccc(O)c(OC)c4)c(OC)c3)cc2OC)ccc1O | inactive | < 30 | inactive | inactive | inactive | inactive | inactive | inactive | inactive | inactive | –
C[C@@H]1C[C@H]2[C@@H]3CCC4=CC(=O)C=C[C@]4(C)[C@@]3(F)[C@@H](O)C[C@]2(C)[C@@]1(O)C(=O)CO [DEXAMETHASONE] | – | 61.6 | – | – | – | – | – | – | – | – | –
COc1cc([C@@H](O)[C@H](CO)Oc2c(OC)cc([C@@H]3OC[C@@H]4[C@H]3CO[C@H]4c3cc(OC)c(O[C@@H](CO)[C@H](O)c4ccc(O)c(OC)c4)c(OC)c3)cc2OC)ccc1O | inactive | < 30 | inactive | inactive | inactive | inactive | inactive | inactive | inactive | inactive | –
COc1cc([C@H](O)[C@@H](CO)Oc2c(OC)cc([C@@H]3Oc4c(OC)cc(C=O)cc4[C@H]3CO)cc2OC)ccc1O | inactive | < 30 | inactive | inactive | inactive | inactive | inactive | inactive | inactive | inactive | –

Reference: ChEMBL document CHEMBL1795288, “Lignans and neolignans from Sinocalamus affinis and their absolute configurations” (2011)
